Data on two compounds can be found in ChEMBL document CHEMBL3632554, “Ligand binding studies, preliminary structure-activity relationship and detailed mechanistic characterization of 1-phenyl-6,6-dimethyl-1,3,5-triazine-2,4-diamine derivatives as inhibitors of Escherichia coli dihydrofolate reductase” (Eur J Med Chem, 2015).

This assay addresses T1, Dihydrofolate reductase (Escherichia coli) (UniProt P0ABQ4).
T1 sequence (whole entry): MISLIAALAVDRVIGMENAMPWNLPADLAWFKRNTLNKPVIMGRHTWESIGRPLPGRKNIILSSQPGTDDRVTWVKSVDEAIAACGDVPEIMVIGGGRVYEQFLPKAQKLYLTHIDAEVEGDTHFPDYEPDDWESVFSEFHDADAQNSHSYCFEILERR

The source made the active and inactive calls. The calls are words filed in the database; no cut-off is given here.

Description: Inhibition of Escherichia coli DHFR assessed as NADP formation by quadratic Morrison plot analysis

Take `CN(C)c1ccc(N2C(N)=NC(N)=NC2(C)C)cc1`: the “Ki(app)” value was “inactive”.
On to `CC1(C)N=C(N)N=C(N)N1c1ccc(CCCCc2ccc(Cl)cc2Cl)cc1`, for which the “Ki(app)” value was “inactive”.
